Laboratory results: paper PMC11071649, “Synthesis and Selective Anticancer Activity Evaluation of 2-phenylacrylonitrile Derivatives as Tubulin Inhibitors” (Current Medicinal Chemistry, 2024)
Like-named read-outs stand apart in the source and are kept apart here.

Legend:
Assay type in all cases: cell-based, human
[1] = tested on: A549 lung cancer cell; assay: MTT anti-proliferative assay, A549; conditions: for IC50: MTT, 48 h
Method in brief: (§1)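 Anti-proliferative effect is measured with the MTT assay, which reports inhibition of net cell growth. Cells come from ATCC, are maintained in DMEM with FBS and are seeded into 96-well plates before treatment.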

[2] = tested on: AGS gastric cancer cell; assay: MTT anti-proliferative assay, AGS; conditions: for IC50: MTT, 48 h
Method in brief: as §1

[3] = tested on: BEL-7402 liver cancer cell; assay: MTT anti-proliferative assay, BEL-7402; conditions: for IC50: MTT, 48 h
Method in brief: as §1

[4] = tested on: HCT116 colectal cancer cell; assay: MTT anti-proliferative assay, HCT116; conditions: for IC50: MTT, 48 h, read-out: IC50 HCT-116
Method in brief: as §1

[5] = tested on: HeLa cervical cancer cell; assay: MTT anti-proliferative assay, HeLa; conditions: MTT, 48 h
Method in brief: as §1

[6] = tested on: HepG2 hepatoma cell; assay: MTT anti-proliferative assay, HepG2; conditions: MTT, 48 h; read-out: IC50 HepG-2
Method in brief: as §1

[7] = tested on: L-02 normal liver cell; assay: MTT assay, L-02 normal cells; conditions: 48 h
Method in brief: as §1

[8] = tested on: MGC-803 late stage differentiation gastric cancer cell; assay: MTT anti-proliferative assay, MGC-803; conditions: for IC50: MTT, 48 h
Method in brief: as §1

[9] = tested on: MCF-7 breast cancer cell; assay: MTT anti-proliferative assay, MCF-7; conditions: MTT, 48 h
Method in brief: as §1

[10] = tested on: MCF-10A normal breast cell; assay: MTT assay, MCF-10A normal cells; conditions: 48 h
Method in brief: as §1

[11] = tested on: Raji B lymphoblastoid cell; assay: MTT anti-proliferative assay, Raji
Method in brief: as §1

[12] = tested on: SGC-7901 early differentiation gastric cancer cell; assay: MTT anti-proliferative assay, SGC-7901; conditions: MTT, 48 h
Method in brief: as §1

[13] = tested on: diffuse large B-cell lymphoma SU-DHL-10 cell; assay: MTT anti-proliferative assay, SU-DHL-10
Method in brief: as §1

[14] = MTT, 48 h, read-out: IC50 SU-DHL-10

SMILES	IC50 [1] [µM]	SI (selectivity index), IC50 (L-02)/IC50 (AGS) [2]	IC50 [2] [µM]	IC50 [3] [µM]	IC50 [4] [µM]	IC50 [5] [µM]	IC50 [6] [µM]	IC50 [7] [µM]	IC50 [8] [µM]	IC50 [9] [µM]	IC50 [10] [µM]	IC50 ([11]; MTT, 48 h, read-out: IC50 Raji) [µM]	IC50 [12] [µM]	IC50 [13, 14] [µM]	further results
N#C/C(=C\c1ccc(C(F)(F)F)cc1)c1ccc(C(F)(F)F)cc1 [Compound 1f2k]	47.8 ± 4	> 1.8	53.2 ± 13.2	> 100	> 100	> 100	> 100	> 100	> 100	> 100	> 100	77.4 ± 13.6	> 100	> 100	SI (selectivity index), IC50 (L-02)/IC50 (A549) [1]: > 2.0
N#C/C(=C\c1cccc(C(F)(F)F)c1)c1ccc(C(F)(F)F)cc1 [Compound 1f2l]	> 100	–	> 100	> 100	> 100	> 100	> 100	> 100	> 100	> 100	> 100	72.1 ± 7.2	> 100	50.1 ± 20.9	SI (selectivity index), IC50 (L-02)/IC50 (Raji) [11]: > 1.3; SI (selectivity index), IC50 (L-02)/IC50 (SU-DHL-10) [13]: > 1.9
N#C/C(=C\c1ccccc1C(F)(F)F)c1ccc(C(F)(F)F)cc1 [Compound 1f2m]	> 100	> 2.1	> 100	> 100	> 100	> 100	> 100	> 100	> 100	> 100	> 100	> 100	> 100	> 100	SI (selectivity index), IC50 (L-02)/IC50 (A549) [1]: > 2.6; SI (selectivity index), IC50 (L-02)/IC50 (HCT-116) [4]: > 1.7
Cc1ccc(/C=C(\C#N)c2ccc(C(F)(F)F)cc2)cc1 [Compound 1f2n]	37.9 ± 1	> 2.4	46.4 ± 15	> 100	57.3 ± 3.2	> 100	> 100	> 100	> 100	> 100	> 100	> 100	> 100	> 100	–
Cc1cccc(/C=C(\C#N)c2ccc(C(F)(F)F)cc2)c1 [Compound 1f2o]	> 100	–	41.2 ± 1.1	> 100	> 100	> 100	> 100	> 100	> 100	> 100	> 100	> 100	> 100	> 100	–
CCc1ccc(/C=C(\C#N)c2ccc(C(F)(F)F)cc2)cc1 [Compound 1f2p]	> 100	–	> 100	> 100	> 100	> 100	> 100	> 100	> 100	> 100	> 100	> 100	> 100	> 100	–
CC(C)c1ccc(/C=C(\C#N)c2ccc(C(F)(F)F)cc2)cc1 [Compound 1f2q]	> 100	–	> 100	> 100	> 100	> 100	> 100	> 100	> 100	> 100	> 100	34.9 ± 4.5	> 100	38.4 ± 3.6	SI (selectivity index), IC50 (L-02)/IC50 (Raji) [11]: > 2.8
Cc1cc(C)c(/C=C(\C#N)c2ccc(C(F)(F)F)cc2)c(C)c1 [Compound 1f2r]	> 100	–	> 100	> 100	> 100	> 100	> 100	> 100	> 100	> 100	> 100	> 100	> 100	> 100	–
COc1ccc(/C=C(\C#N)c2ccc(C(F)(F)F)cc2)cc1 [Compound 1f2s]	> 100	–	> 100	> 100	47.8 ± 0.7	> 100	> 100	> 100	> 100	> 100	> 100	> 100	> 100	> 100	SI (selectivity index), IC50 (L-02)/IC50 (HCT-116) [4]: > 2.0
COc1cccc(/C=C(\C#N)c2ccc(C(F)(F)F)cc2)c1 [Compound 1f2t]	> 100	> 1.2	77.5 ± 3.9	> 100	33.2 ± 0.2	> 100	> 100	> 100	> 100	> 100	> 100	> 100	> 100	> 100	SI (selectivity index), IC50 (L-02)/IC50 (HCT-116) [4]: > 3.0
COc1cc(/C=C(\C#N)c2ccc(C(F)(F)F)cc2)cc(OC)c1OC [Compound 1f2u]	> 100	–	> 100	> 100	> 100	> 100	> 100	> 100	> 100	> 100	92.5 ± 10.2	> 100	> 100	> 100	–
N#C/C(=C\c1ccc(Oc2ccccc2)cc1)c1ccc(C(F)(F)F)cc1 [Compound 1f2v]	> 100	–	> 100	> 100	> 100	> 100	> 100	> 100	> 100	> 100	> 100	> 100	> 100	> 100	–
N#C/C(=C\c1ccc(/C=C(\C#N)c2ccc(C(F)(F)F)cc2)cc1)c1ccc(C(F)(F)F)cc1 [Compound 1f2w]	> 100	–	> 100	> 100	> 100	> 100	> 100	> 100	> 100	> 100	> 100	–	> 100	–	SI (selectivity index), IC50 (L-02)/IC50 (Raji) [11]: > 2083; IC50 ([11]; read-out: IC50 Raji cells): 0.048 µM; SI (selectivity index), IC50 (L-02)/IC50 (SU-DHL-10) [13]: > 4545; IC50 ([13]; read-out: IC50 SU-DHL-10 cells): 0.022 µM
N#C/C(=C\c1ccco1)c1ccc(C(F)(F)F)cc1 [Compound 1f3a]	> 100	–	> 100	> 100	> 100	> 100	> 100	> 100	> 100	> 100	> 100	> 100	> 100	> 100	–
N#C/C(=C\c1cccs1)c1ccc(C(F)(F)F)cc1 [Compound 1f3b]	> 100	> 1.5	65 ± 17.9	> 100	> 100	> 100	> 100	> 100	> 100	> 100	> 100	> 100	> 100	> 100	–
N#C/C(=C\c1ccccn1)c1ccc(C(F)(F)F)cc1 [Compound 1f3c]	> 100	–	> 100	> 100	87.6 ± 9.1	> 100	> 100	> 100	> 100	> 100	> 100	> 100	> 100	> 100	SI (selectivity index), IC50 (L-02)/IC50 (HCT-116) [4]: > 1.1
N#C/C(=C\c1cccc2ccccc12)c1ccc(C(F)(F)F)cc1 [Compound 1f3d]	> 100	–	> 100	> 100	> 100	> 100	> 100	> 100	> 100	> 100	> 100	> 100	> 100	> 100	–
CCN(CC)c1ccc(/C=C(\C#N)c2cc(OC)c(OC)c(OC)c2)cc1 [Compound 1g2b]	> 100	> 13.1	7.5 ± 0.4	0.03 ± 0.01	1 ± 0.1	> 100	> 100	> 100	0.12 ± 0.03	0.45 ± 0.06	0.05 ± 0.001	0.37 ± 0.06	> 100	2.4 ± 0.1	SI (selectivity index), IC50 (L-02)/IC50 (BEL-7402) [3]: > 3333; SI (selectivity index), IC50 (L-02)/IC50 (HCT-116) [4]: > 96.1; SI (selectivity index), IC50 (L-02)/IC50 (MGC-803) [8]: > 819; SI (selectivity index), IC50 (L-02)/IC50 (Raji) [11]: > 270; SI (selectivity index), IC50 (L-02)/IC50 (SU-DHL-10) [13]: > 34.0
